From the METLIN SMRT retention time set (Domingo-Almenara et al. 2019) come the findings set out here.

The series can be described thus: gradient 5% acetonitrile 3 min, to 50% in 2 min, to 85% in 15 min, held 3 min, 100 µL/min. The following applies: column: Zorbax Extend-C18 2.1 x 50 mm; eluents: water / acetonitrile, 0.1% formic acid. In a few lines: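 The mobile phases were water and acetonitrile, each with 0.1% formic acid, pumped at 100 μL/min through a Zorbax Extend-C18 column (2.1 × 50 mm, 1.8 μm). Pure standards were injected as mixtures of ~100 molecules and detected by a quadrupole time-of-flight mass spectrometer in positive and negative ionization mode. Retention time came from computationally picked adduct peaks, each inspected by hand.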
In turn, `Cc1cccc(NC(=O)C2CCCN2S(=O)(=O)c2cccc3nsnc23)n1` (centres undefined) registered an RP-LC retention time of 798 s.
In turn, `CC(C)N1CCN(Cc2nc(Cn3ccn4nc(-c5ccccc5)cc4c3=O)no2)CC1` gave an RP-LC retention time of 647 s.
Then `CCC(C)NC(=O)c1cc(COc2ccc(NC(=O)CC(C)C)cc2)on1` (centres undefined), with 871 s; and `COc1cc(NC(=O)Nc2nccn(-c3ccc(C)c(Cl)c3)c2=O)cc(OC)c1`, with 1060 s.
Under `CC(C)n1c(=O)oc2cc(-c3noc(-c4ccccc4)n3)ccc21` stands 1060 s; under `O=C(CN1CCN(Cc2ccc(F)cc2)C1=O)NCCc1ccccc1Cl`, 847 s; under `O=C(c1c(F)cccc1F)N1CCN(c2nc(CN3CCOCC3)cs2)CC1`, 608 s.
`CCc1nnc2ccc(-c3noc(-c4ccc(NC(C)=O)cc4)n3)cn12` showed an RP-LC retention time of 705 s.
Then `COc1cccc(C(C)NC(=O)CN2C(=O)NC3(CCCCC3)C2=O)c1` (centres undefined), with 748 s; and `NC(=O)C1CCN(C(=O)CN2CCN(c3cccc(Cl)c3)CC2)CC1`, with 600 s.
Under `COc1ccc2c(c1)C1(CCN(C(=O)CC(C)C)C1)C(=O)N2C` (centres undefined) stands 722 s; under `COc1cccc(N2CCCn3c2nc2c3c(=O)n(Cc3c(F)cccc3Cl)c(=O)n2C)c1`, 966 s.
`COCCn1c(CCCC(=O)NCc2ccc(C(C)C)cc2)nc2cccnc21` showed an RP-LC retention time of 741 s.
In turn, `Cc1ccc(NC(=O)C2C(=O)NC3(C)CC2c2ccccc2O3)c(C)c1` (centres undefined) came in with an RP-LC retention time of 912 s.
Turning to `CCOc1ccc(-c2nc(-c3ccc4c(c3)N(CC)C(=O)CO4)no2)cc1OCC`, the RP-LC retention time came to 1200 s.
Then `COC(=O)c1cccc(NC(=O)C2CC(=O)N(c3ccccc3)C2)c1` (centres undefined), with 725 s; and `N#Cc1ccc(C(=O)NC2CCN(c3ccc(F)cc3)C2=O)cc1` (centres undefined), with 754 s; and `COc1ccc(Nc2c(-c3ccc(N(C)C)cc3)nc3cnc(Br)cn23)cc1OC`, with 812 s.
`Cn1cc2c3c(cccc31)CN(C(=O)c1cc(F)cc(F)c1)CC2` came in with an RP-LC retention time of 955 s.
`COCc1cc(=O)n(CC(=O)NCc2ccc(F)cc2)c(N)n1`: the RP-LC retention time was found to be 583 s.
Then `Cc1cc(-c2ccc(S(=O)(=O)N3CCC(C(=O)NCc4cccs4)CC3)o2)n[nH]1`, with 735 s; and `Cc1ccc(-c2noc(Cn3c(=O)n(CCc4ccccc4)c(=O)c4sccc43)n2)cc1`, with 1170 s.
Under `Nc1ncnc2c1nc(Cl)n2C1OC2COP(=O)(O)OC2C1O` (centres undefined) stands 523 s; under `CCC(C)NC(=O)C1CCN(S(=O)(=O)c2c(C)nn(-c3ccccc3)c2C)CC1` (centres undefined), 830 s; under `O=C(NCc1ccc2c(c1)OCO2)C1CCN(C(=O)c2cc(-c3ccncc3)n[nH]2)CC1`, 579 s.
Under `COC(=O)c1ccc(Nc2c(C(=O)N3CCCC3)cnc3nc(C)ccc23)cc1` stands 598 s.
On to `CCC(NC(=O)C1CCN(c2cncnc2N2CCCCC2)CC1)c1cccs1` (centres undefined), for which the RP-LC retention time is 706 s.
Under `CCCC(=O)NC1CCN(c2ccccc2)C1=O` (centres undefined) stands 660 s; under `COCC(=O)NC1CCC12CCN(C(=O)C(C)C)CC2` (centres undefined), 636 s; under `Fc1ccccc1N1CCN(c2ncc3c(n2)CCN(Cc2ccc4c(c2)OCCO4)C3)CC1`, 779 s.
Then `COc1ccccc1C(=O)NCCn1cc(SCC(N)=O)c2ccccc21`, with 680 s.
Then `CCCn1nccc1-c1csc(S(=O)(=O)N2CCC3(CC2)OCCO3)c1`, with 906 s.
In turn, `COc1ccc(-c2csc(NC(=O)c3ccc([N+](=O)[O-])cc3)n2)cc1` showed an RP-LC retention time of 1070 s.
`CCOc1ccc(CNC(=O)C2CCN(Cc3cn(CC)c4ccc(OC)cc34)CC2)cc1` had an RP-LC retention time of 723 s.
In turn, `CCOC(=O)c1ccc2nc(C(F)(F)F)nc(NCCCN3CCOCC3)c2c1` gave an RP-LC retention time of 658 s.
Under `Cc1c(Cl)cccc1NC(=O)N1C[C@@H](F)C[C@H]1C(=O)N1CCc2ccccc2C1` stands 864 s; under `Cc1ccc(S(=O)(=O)N2CCC(F)(c3nc(CC(C)C)no3)CC2)cc1F`, 1200 s; under `Cc1ccc(C(=O)CC2(O)C(=O)Nc3ccc(Cl)cc32)cc1C` (centres undefined), 772 s.
`CCOc1ccccc1NS(=O)(=O)c1ccc2c(c1)C(=O)N(C)c1ncccc1O2` came in with an RP-LC retention time of 941 s.
On to `CN(CC1CCOC1)C(=O)Nc1cc(F)c(F)c(F)c1` (centres undefined), for which the RP-LC retention time came out at 764 s.
Then `Cc1nc(N2CCCC2)ncc1-c1ccnc(N2CCN(c3ccccc3)CC2)n1`, with 1100 s; and `COc1ccccc1OCC(=O)Nc1ccc2c(c1)CN(C(=O)C1CC1)CC2`, with 743 s.
Under `COc1ccc(-c2cc3nn(CC(=O)Nc4cc(C)ccc4C)c(=O)n3c(C)n2)cc1` stands 975 s; under `O=C(CN1C(=O)COc2ccc(C(=O)N3CCCC3)cc21)NCc1ccc2c(c1)OCO2`, 682 s.
Then `O=C(NCCOc1ccccc1)c1cccc(Br)c1`, with 868 s; and `COc1ccc(CNC(=O)c2nnn(Cc3nc(-c4ccccc4)oc3C)c2N)cc1OC`, with 859 s; and `COc1ccc(OC)c(S(=O)(=O)N2CCC([C@H]3[C@@H](OC)C(=O)N3C(C)C)CC2)c1`, with 809 s.
On to `O=c1ccc(-c2cccc(Cl)c2)nn1CCc1nc(-c2cccnc2)no1`, for which the RP-LC retention time came out at 805 s.
In turn, `CCCCn1c(=O)c2ccccc2n(Cc2nc(-c3ccc(Cl)c(F)c3)no2)c1=O` showed an RP-LC retention time of 1110 s.
`Cn1nccc1-c1cccc(-c2noc(-c3cccc(NC(=O)c4ccco4)c3)n2)c1` registered an RP-LC retention time of 991 s.
Under `Cc1ccc2c(c1)N(S(C)(=O)=O)CCC(C(=O)NC1CCCCCCC1)O2` (centres undefined) stands 1050 s; under `COc1ccc(NC(=O)c2c(C)oc3nc(C)nc(N4CCOCC4)c23)cc1OC`, 711 s.
As for `COc1cccc(-c2noc(C3CCCN3C(=O)Nc3cccc(C)c3C)n2)c1` (centres undefined), the RP-LC retention time turned out to be 925 s.
In turn, `COc1ccc(C2c3[nH]c4ccccc4c3CCN2C(=O)c2cccnc2)cc1` (centres undefined) showed an RP-LC retention time of 887 s.
`COc1cccc(CNC(=O)Cn2nc3cc(-c4ccncc4)nc(C)n3c2=O)c1` returned an RP-LC retention time of 640 s.
Then `COC(=O)c1c(NCc2ccc(OC)c(OC)c2)c2cccc(Cl)c2[nH]c1=O`, with 736 s; and `O=C(NCCc1csc(C2CCN(C(=O)C3CC3)CC2)n1)C1CC1`, with 640 s.
Then `Cc1ccc(-n2c(=O)c3c(cc(C)n3C)n(CC(=O)Nc3ccc4c(c3)OCO4)c2=O)cc1`, with 819 s.
The compound `CC1CCC(NC(=O)c2nnc(-c3ccc(S(=O)(=O)N4CCCC4)cc3)o2)CC1` (centres undefined) returned an RP-LC retention time of 1020 s.
In turn, `CCCN1C(=O)c2cc(S(=O)(=O)N(C)Cc3ccccc3)ccc2Oc2cccnc21` gave an RP-LC retention time of 1190 s.
Under `Cc1nnc2ccc(S(=O)(=O)N(Cc3ccccc3)c3ccc(F)cc3)cn12` stands 870 s; under `CCOc1ccc2cccc(NC(=O)c3ccccc3C(F)(F)F)c2n1`, 1200 s; under `CCC(=O)NC(C)c1nc(-c2ccccc2Cl)no1` (centres undefined), 740 s.
Under `O=C(COc1ccccc1)N1CC(n2cc(COCC3CC3)nn2)C1` stands 717 s; under `CCCNC(=O)C1CCCN(c2nnc(C)c3c(C)n(-c4ccc(Cl)cc4)nc23)C1` (centres undefined), 693 s.
Under `CCOCCCNC(=O)Cc1c(C)n(C)c2nc(-c3ccccc3)nn2c1=O` stands 649 s; under `Cc1cc(C)c(S(=O)(=O)NCCn2c(C)cnc2C2CC2)cc1C`, 659 s; under `CSc1ccccc1CN1CCC(CNC(=O)c2ccccc2Br)CC1`, 572 s.
As for `COc1cccc(-c2noc(C3CCCN3C(=O)Nc3ccc(OC)c(Cl)c3)n2)c1` (centres undefined), the RP-LC retention time stood at 974 s.
Then `CCCS(=O)(=O)NCCn1c(C)cnc1-c1ccccc1`, with 566 s; and `Cc1nnsc1C(=O)N1CCC(CNC(=O)C(C)(C)Oc2ccc(Cl)cc2)CC1`, with 806 s; and `CC(C)c1ccc(NC(=O)N2CCN(c3ccc4nncn4n3)CC2)cc1`, with 672 s.
Then `CC(=O)N1CCC(C(=O)N(C)C2CCc3nn(C)c(=O)n3CC2)CC1` (centres undefined), with 569 s; and `Cc1ccc(-c2ncccc2CNS(=O)(=O)Cc2cccc(Cl)c2)cc1`, with 741 s; and `COc1ccc(-c2ncc3c(n2)CCN(S(=O)(=O)Cc2ccccc2)C3)cc1`, with 976 s.
Under `COc1cc(NS(=O)(=O)c2ccc(-c3c(C)noc3C)cc2)cc(OC)c1OC` stands 856 s; under `Cn1c(N2CCCC(C(=O)Nc3ccc4c(c3)OCCO4)C2)cc(=O)n(C)c1=O` (centres undefined), 663 s.
In turn, `Cc1ccc(-n2c(=O)c3c(cc(C)n3C)n(CC(=O)Nc3cccc(C)c3)c2=O)cc1` gave an RP-LC retention time of 905 s.
Then `CN(C)c1ccc(CNC(=O)C2CCCN(c3nccnc3Sc3ccccc3)C2)cc1` (centres undefined), with 744 s.
